In BigSolDB 2.1:

CC(C)(C)OC(=O)N1CCC[C@H]1C(=O)O
solubility (mole fraction)
Conditions | 283.15 K | 288.15 K | 293.15 K | 298.15 K | 303.15 K | 313.15 K | 323.15 K
in 2-butanone | 0.0371 | – | 0.0532 | – | 0.0687 | 0.0925 | 0.125
in acetone | 0.0457 | – | 0.06 | – | 0.075 | 0.0965 | 0.129
in acetonitrile | 0.0113 | – | 0.0166 | – | 0.0247 | 0.0379 | 0.054
in dichloromethane | 0.0896 | 0.098 | 0.107 | 0.116 | 0.125 | – | –
in ethanol | 0.0968 | – | 0.111 | – | 0.133 | 0.172 | 0.215
in ethyl acetate | 0.0217 | – | 0.0303 | – | 0.0392 | 0.0494 | 0.0606
in isobutanol | 0.072 | – | 0.0942 | – | 0.12 | 0.143 | 0.166
in isopropanol | 0.0971 | – | 0.114 | – | 0.134 | 0.168 | 0.208
in methanol | 0.115 | – | 0.15 | – | 0.196 | 0.24 | 0.297
in methyl acetate | 0.0252 | – | 0.0339 | – | 0.0436 | 0.055 | 0.0698
in n-butanol | 0.0889 | – | 0.103 | – | 0.126 | 0.149 | 0.178
in n-propanol | 0.0944 | – | 0.109 | – | 0.132 | 0.16 | 0.19
in sec-butanol | 0.0968 | – | 0.127 | – | 0.157 | 0.193 | 0.232
in water | 6.6e-05 | – | 0.000204 | – | 0.000593 | 0.000959 | 0.00144
